For series [1] the following is noted: 298.15 K; 101.33 kPa; Liquid; Vibrating tube method.
A short description of series [2]: excess molar enthalpy (molar enthalpy of mixing); xn = mol fraction of the nth substance listed. As to conditions: 298.15 K, 101.33 kPa, Liquid, Flow calorimetry.

Structures are written as SMILES. Numbers after ± are expanded uncertainties.

For the molecule `COC(C)(C)C` [2-methoxy-2-methylpropane], in series [1], the mass density is recorded as 735.69 ± 0.4 kg/m3.

As for `CCC(C)CC` [3-methylpentane], the mass density in series [1] is listed as 660.3 ± 0.41 kg/m3.

With `CCC(C)CC` [3-methylpentane] + COC(C)(C)C, the excess molar enthalpy in series [2] (x2 = 0.0499) is 0.0137 ± 0.000382 kcal/mol; in series [2] (x2 = 0.0999), 0.0259 ± 0.000502 kcal/mol; in series [2] (x2 = 0.1501), 0.0382 ± 0.000621 kcal/mol; in series [2] (x2 = 0.2) it was 0.0482 ± 0.000717 kcal/mol; in series [2] (x2 = 0.2495) it was 0.0559 ± 0.000789 kcal/mol; in series [2] (x2 = 0.3004), 0.0629 ± 0.00086 kcal/mol. Besides, the excess molar enthalpy in series [2] (x2 = 0.3502) was determined as 0.0683 ± 0.000932 kcal/mol; in series [2] (x2 = 0.3999), 0.072 ± 0.000956 kcal/mol; in series [2] (x2 = 0.4505), 0.0745 ± 0.00098 kcal/mol; in series [2] (x2 = 0.4997), 0.0752 ± 0.001 kcal/mol; in series [2] (x2 = 0.55) it was 0.0741 ± 0.00098 kcal/mol; in series [2] (x2 = 0.5996) it was 0.0717 ± 0.000956 kcal/mol. In addition, the excess molar enthalpy in series [2] (x2 = 0.6502) was determined as 0.0684 ± 0.000932 kcal/mol; in series [2] (x2 = 0.7003), 0.063 ± 0.00086 kcal/mol; in series [2] (x2 = 0.75), 0.0561 ± 0.000813 kcal/mol; in series [2] (x2 = 0.7999), 0.0476 ± 0.000717 kcal/mol; in series [2] (x2 = 0.8501) it was 0.0377 ± 0.000621 kcal/mol; in series [2] (x2 = 0.8999) it was 0.0263 ± 0.000502 kcal/mol. For the same molecule, in series [2] (x2 = 0.95), the excess molar enthalpy amounted to 0.0128 ± 0.000359 kcal/mol.

With `CCCCCCCCCC` [decane], the mass density in series [1] came to 726.31 ± 0.42 kg/m3.

Turning to `CCCCCCCCCCCC` [dodecane], the mass density in series [1] came out at 745.38 ± 0.42 kg/m3.

A word on the mass density: it is mass per unit of volume.
